In patent publication US4929542A, “In vitro screening test for mutagenicity and genotoxicity during spermatogenesis” (Cornell Research Foundation, Inc., priority 1987, dated 1990):
Like-named read-outs stand apart in the source and are kept apart here.

Legend:
[1] = system: Xenopus laevis testis explants (round spermatids); assay: In vitro spermatid micronucleus assay (percent round spermatids with micronuclei in cultured testis explants); conditions: for relative in vitro clastogenic potency: day 30 micronucleus counts vs product of mutagen dose and exposure time (FIG. 7)
[2] = system: chromosome aberrations, meiotic prophase; conditions: male mouse; cited from earlier work

Structure (SMILES): Cc1c2ccccc2c(C)c2c1ccc1ccccc12 [DMBA, 9,10-dimethyl-1,2-benzanthracene]
- Percent Round Spermatids With Micronuclei ([1]; DMBA 10^-4 moles/L, 24 hr incubation, post-DMBA culture Day 2): .16 +/- .04%
- Percent Round Spermatids With Micronuclei ([1]; DMBA 10^-4 moles/L, 24 hr incubation, post-DMBA culture Day 5): .15 +/- .06%
- Percent Round Spermatids With Micronuclei ([1]; DMBA 10^-4 moles/L, 24 hr incubation, post-DMBA culture Day 8): .17 +/- .05%
- Percent Round Spermatids With Micronuclei ([1]; DMBA 10^-4 moles/L, 24 hr incubation, post-DMBA culture Day 15): .48 +/- .12%
- Percent Round Spermatids With Micronuclei ([1]; DMBA 10^-4 moles/L, 24 hr incubation, post-DMBA culture Day 22): .28 +/- .12%
- Percent Round Spermatids With Micronuclei ([1]; DMBA 10^-4 moles/L, 24 hr incubation, post-DMBA culture Day 29, p < .001): 1.07 +/- .14%
- fold increase in spermatid micronucleus frequency, 72 hr relative to 24 hr incubation ([1]; DMBA 10^-5 M (2.6 mg/L), culture day 30): 3 fold
- Percent Round Spermatids With Micronuclei ([1]; DMBA 10^-5 moles/L, 24 hr incubation, post-DMBA culture Day 2): .19 +/- .01%
- Percent Round Spermatids With Micronuclei ([1]; DMBA 10^-5 moles/L, 24 hr incubation, post-DMBA culture Day 5): .16 +/- .06%
- Percent Round Spermatids With Micronuclei ([1]; DMBA 10^-5 moles/L, 24 hr incubation, post-DMBA culture Day 8): .39 +/- .28%
- Percent Round Spermatids With Micronuclei ([1]; DMBA 10^-5 moles/L, 24 hr incubation, post-DMBA culture Day 15): .20 +/- .001%
- Percent Round Spermatids With Micronuclei ([1]; DMBA 10^-5 moles/L, 24 hr incubation, post-DMBA culture Day 22): .48 +/- .13%
- Percent Round Spermatids With Micronuclei ([1]; DMBA 10^-5 moles/L, 24 hr incubation, post-DMBA culture Day 29, p < .01): .83 +/- .06%
- Percent Round Spermatids With Micronuclei ([1]; DMBA 10^-6 moles/L, 24 hr incubation, post-DMBA culture Day 2): .28 +/- .13%
- Percent Round Spermatids With Micronuclei ([1]; DMBA 10^-6 moles/L, 24 hr incubation, post-DMBA culture Day 5): .15 +/- .06%
- Percent Round Spermatids With Micronuclei ([1]; DMBA 10^-6 moles/L, 24 hr incubation, post-DMBA culture Day 8): .16 +/- .06%
- Percent Round Spermatids With Micronuclei ([1]; DMBA 10^-6 moles/L, 24 hr incubation, post-DMBA culture Day 15): .39 +/- .01%
- Percent Round Spermatids With Micronuclei ([1]; DMBA 10^-6 moles/L, 24 hr incubation, post-DMBA culture Day 22): .30 +/- .14%
- Percent Round Spermatids With Micronuclei ([1]; DMBA 10^-6 moles/L, 24 hr incubation, post-DMBA culture Day 29, p < .05): .68 +/- .01%
- Percent Round Spermatids With Micronuclei ([1]; DMBA 10^-7 moles/L, 24 hr incubation, 0.1% DMSO, post-DMBA culture Day 2, mean +/- s.d., n=2): .29 +/- .14%
- Percent Round Spermatids With Micronuclei ([1]; DMBA 10^-7 moles/L, 24 hr incubation, post-DMBA culture Day 5): .16 +/- .06%
- Percent Round Spermatids With Micronuclei ([1]; DMBA 10^-7 moles/L, 24 hr incubation, post-DMBA culture Day 8): .21 +/- .02%
- Percent Round Spermatids With Micronuclei ([1]; DMBA 10^-7 moles/L, 24 hr incubation, post-DMBA culture Day 15): .28 +/- .13%
- Percent Round Spermatids With Micronuclei ([1]; DMBA 10^-7 moles/L, 24 hr incubation, post-DMBA culture Day 22): .19 +/- .02%
- Percent Round Spermatids With Micronuclei ([1]; DMBA 10^-7 moles/L, 24 hr incubation, post-DMBA culture Day 29): .36 +/- .05%
- increase in spermatid micronucleus frequency ([1]; DMBA, 24 hr exposure): dose-dependent increase in the spermatid micronucleus frequency only after 29 additional days of culture
- Percent Round Spermatids With Micronuclei ([1]; Table 4: DMBA 10^-5 moles/L, 24 hr incubation, subsequent culture 29 days, P < .05): .86 +/- .10%
- Percent Round Spermatids With Micronuclei ([1]; Table 4: DMBA 10^-5 moles/L, 72 hr incubation, subsequent culture 27 days, P < .001): 2.52 +/- .44%
- relative in vitro clastogenic potency [1]: AD>CP>DMBA

Structure (SMILES): O=P1(N(CCCl)CCCl)NCCCO1 (stereo not shown) [CP, cyclophosphamide]
- Micronucleus % [1]: .15 +/- .06%
- induction of spermatid micronuclei relative to concurrent controls [1]: did not result in a significant induction of spermatid micronuclei
- Percent Round Spermatids With Micronuclei ([1]; CP 10^-4 moles/L, 24 hr incubation, post-CP culture Day 2): .30 +/- .14%
- Percent Round Spermatids With Micronuclei ([1]; CP 10^-4 moles/L, 24 hr incubation, post-CP culture Day 5): .29 +/- .14%
- Percent Round Spermatids With Micronuclei ([1]; CP 10^-4 moles/L, 24 hr incubation, post-CP culture Day 8): .29 +/- .13%
- Percent Round Spermatids With Micronuclei ([1]; CP 10^-4 moles/L, 24 hr incubation, post-CP culture Day 21): .25 +/- .07%
- Percent Round Spermatids With Micronuclei ([1]; CP 10^-4 moles/L, 24 hr incubation, post-CP culture Day 29, p < .001): 2.70 +/- .13%
- Micronucleus % ([1]; CP 10^-4 moles/L, 72 hr incubation, cultured 6 days after): .27 +/- .11%
- Percent Round Spermatids With Micronuclei ([1]; CP 10^-5 moles/L, 24 hr incubation, post-CP culture Day 2): .20 +/- .01%
- Percent Round Spermatids With Micronuclei ([1]; CP 10^-5 moles/L, 24 hr incubation, post-CP culture Day 5): .19 +/- .01%
- Percent Round Spermatids With Micronuclei ([1]; CP 10^-5 moles/L, 24 hr incubation, post-CP culture Day 8): .29 +/- .14%
- Percent Round Spermatids With Micronuclei ([1]; CP 10^-5 moles/L, 24 hr incubation, post-CP culture Day 15): .38 +/- .26%
- Percent Round Spermatids With Micronuclei ([1]; CP 10^-5 moles/L, 24 hr incubation, post-CP culture Day 21): .41 +/- .16%
- Percent Round Spermatids With Micronuclei ([1]; CP 10^-5 moles/L, 24 hr incubation, post-CP culture Day 29, P < .01): 1.90 +/- .43%
- Micronucleus % ([1]; CP 10^-5 moles/L, 72 hr incubation, cultured 6 days after): .19 +/- .01%
- Percent Round Spermatids With Micronuclei ([1]; CP 10^-6 moles/L, 24 hr incubation, post-CP culture Day 2): .37 +/- .28%
- Percent Round Spermatids With Micronuclei ([1]; CP 10^-6 moles/L, 24 hr incubation, post-CP culture Day 5): .37 +/- .29%
- Percent Round Spermatids With Micronuclei ([1]; CP 10^-6 moles/L, 24 hr incubation, post-CP culture Day 8): .15 +/- .06%
- Percent Round Spermatids With Micronuclei ([1]; CP 10^-6 moles/L, 24 hr incubation, post-CP culture Day 15): .49 +/- .13%
- Percent Round Spermatids With Micronuclei ([1]; CP 10^-6 moles/L, 24 hr incubation, post-CP culture Day 21): .35 +/- .07%
- Percent Round Spermatids With Micronuclei ([1]; CP 10^-6 moles/L, 24 hr incubation, post-CP culture Day 29, p < .05): .99 +/- .01%
- Micronucleus % ([1]; CP 10^-6 moles/L, 72 hr incubation, cultured 6 days after): .14 +/- .06%
- induction of spermatid micronuclei ([1]; CP, 24 hr incubation, 29 days after exposure): dose-dependent increase in spermatid micronuclei
- lowest effective dose (spermatid micronuclei) ([1]; CP, 24 hr incubation, 29 days after exposure, = […]): 10^-6 M
- increase in micronuclei in spermatids from pachytene through diplotene stages ([1]; CP, 72 hr incubation, 6 days culture): did not result in significant increases in micronuclei
- stage restriction of clastogenesis ([1]; CP, cultured testes): restriction of CP clastogenesis to premeiotic stages
- stage of cells affected (aberrations) ([1]; CP, in vitro exposure of testis explants): induces aberrations in cells that require 24 to 30 days to develop into round spermatids
- relative in vitro clastogenic potency [1]: AD>CP>DMBA
- induction of chromosome aberrations [2]: induction of chromosome aberrations throughout meiotic prophase

Structure (SMILES): COc1cccc2c1C(=O)c1c(O)c3c(c(O)c1C2=O)C[C@@](O)(C(=O)CO)C[C@@H]3O[C@H]1C[C@H](N)[C@H](O)[C@H](C)O1 [AD, adriamycin]
- concentration at which assay was sensitive to clastogenesis ([1]; AD, 4 hr exposure, day 22, = 0.58 mg/L): 10^-6 M
- concentration at which assay was sensitive to clastogenesis ([1]; AD, 4 hr exposure, day 30, = 58 μg/L): 10^-7 M
- increase in spermatid micronuclei ([1]; AD, 4 hr exposure, days 22 and 30, unmodified XSCM (Table 6)): dose-dependent increase in spermatid micronuclei on both days 22 and 30
- spermatocyte stages most sensitive to clastogenesis ([1]; AD, 4 hrs exposure (Table 5)): leptotene (day 23) and premeiotic S or type B spermatogonia (day 30)
- increase in spermatid micronuclei ([1]; AD, 4 hrs exposure, each time point (Table 5)): dose-dependent increases in spermatid micronuclei at each time point examined
- increase in assay sensitivity on increasing exposure ([1]; AD, exposure increased from 4 hrs. to 12 hrs.): 1.7 fold
